Data: patent publication US12582642B2, “Composition for treating, improving, and/or preventing progression of bovine papillomatosis caused by bovine papillomavirus” (KinoPharma, Inc., priority 2020, dated 2026)
Values joined by “and” are separate entries in the source; they are usually repeats but may differ in a detail not shown here. Identical values can stand only once. “Also recorded” adds a separate entry of the source.

How the values were obtained:
[1] = tested on: bovine papilloma (wart) caused by BPV in front teats; test: Therapeutic effect confirmation test performed on dairy cow having papilloma; type: in vivo, cow (female dairy cows); parameters: key to Determination (pharmaceutical effect for each individual cow): Effective: Test section>Control section; Ineffective: Test section≤Control section
Description: To female dairy cows (four), each having papillomas in both of front teats, an ointment agent containing Compound A was applied once a day to a papilloma (wart) of one of the front teats (test section). A dressing tape (Navis, PROSHARE Dressing Role, No. 8-5965-01) was applied around the teat after the application of the ointment agent to prevent external contamination. The ointment agent was applied over a surface of the teat at about 0.01 g to about 0.2 g (equivalent to the active ingredient of about 0.3 mg to about 6 mg) per 1 cm^2 of the surface area. The application (treatment) of 5-day administration with 2-day rest was continued for 4 weeks. The diseased part was imaged once a week. Pharmaceutical effects were evaluated based on a state of the diseased part (wart) four weeks after the start of the application.
Changes (size reduction/disappearance, no change, and growth/occurrence) of warts after four-week administration were evaluated with the following three-level evaluation scores. No change” includes the suppression of growth and being non-effective. “Occurrence” means that a new wart was generated during the four-week administration.
Size reduction/disappearance=+1, no change=0, and growth/occurrence=−1.
Further, scores were added for each individual cow, and pharmaceutical effects for each individual cow were determined based on the following criteria. • Effective: Test section>Control section • Ineffective: Test section≤Control section
When only small warts were targeted, the growth or size reduction of warts noticeably appear, which is considered to make it easier to determine the effects of Compound A. In view of this, only warts having a size of less than 5 mm before the application of an ointment agent were selected from the test sections and the control sections in the above-described confirmation test, and the ratio of warts that had smaller sizes or disappeared was calculated.

[2] = tested on: bovine papilloma (wart) caused by BPV in front teats; test: as above; type: in vivo, cow (female dairy cows)
[3] = total of cows 01-04, ointment 3% by weight, 4 weeks

Compound: Fc1ccc(N2CCCCC2)c(NC(=S)c2ccncc2)c1 [Compound A, N-[5-fluoro-2-(1-piperidinyl)phenyl]-4-pyridinethioamide]
- Ratio of warts that had smaller sizes or disappeared ([1]; Evaluation Method 2: only warts of less than 5 mm before application, 14 warts in the test sections, control sections 0%): 28.6%
- Overall judgement of the ointment agent containing Compound A ([1]; based on the total scores and on the individual cow evaluations, 4 weeks): considered effective
- Cases (cows) determined effective out of four cases ([1]; four cows, 4 weeks, ointment 3% by weight): Effective in three
- State of diseased part in a test section (FIG. 2 images) ([1]; from before the start of administration to after the end of administration): warts disappeared
- Test section Growth/Occurrence (evaluation score) ([1]; per individual cow, ointment (Compound A: 3% by weight) applied once a day to teat wart, 4 weeks, growth/occurrence=−1 per wart): 0 (3×) and −6
- Test section Size reduction/Disappearance (evaluation score) ([1]; per individual cow, ointment (Compound A: 3% by weight, white petrolatum) applied once a day to teat wart, 5-day administration with 2-day rest, 4 weeks, size reduction/disappearance=+1 per wart): +1 (2×) and +3 and +2
- Determination (pharmaceutical effect for each individual cow) ([1]; per individual cow, test section score versus control section (ointment base) score, 4 weeks): Ineffective; also recorded: Effective
- Effectiveness score Test section ([1]; scores added for each individual cow, ointment 3% by weight, 4 weeks): +1 (2×) and −3 and +2
- Test section Growth/Occurrence, Total of four cows [1, 3]: −6
- Test section Size reduction/Disappearance, Total of four cows [1, 3]: +7
- Effectiveness score Test section, Total ([1]; total of four cows, control sections total −8, 4 weeks): +1
- Warts that disappeared among the additional reduced warts in the test section ([2]; administration continued for a further four weeks after the four-week administration): two
- Additional warts with reduced size in the test section ([2]; administration continued under the same conditions for a further four weeks after the four-week administration): four
